Results reported in patent US12281060B2, “Remodilins for airway remodeling and organ fibrosis” (The University of Chicago, priority 2019, dated 2025).
Entries after “also recorded” stand apart in the source; their conditions may differ. Blank lines part the entries; values can stand above or below the molecule they belong to.

Columns and labels:
[1] = Plasma pharmacokinetics and tissue distribution (liver, lung, thyroid) after single oral doses; assay type: in vivo; settings: after oral administration, 10 or 50 mg/kg; male C57Bl/6 mice
Protocol: Studies were performed to characterize plasma pharmacokinetics (PK) and tissue distribution (liver, lung, thyroid) of 5 potential lead candidates in male C57Bl/6 mice receiving single oral doses of 10 mg/kg or 50 mg/kg.

HDM-treated Balb/c mice [2] = assay: HDM-induced airway constrictor hyperresponsiveness, methacholine challenge; assay type: in vivo; settings: 12.5 mg/kg BID IP; HDM model, female Balb/c mice; vs 20% Solutol vehicle
Protocol: (§1) FIGS. 4A-4B. Effect of remodilin treatment (remodilin 83, 12.5 mg/kg BID IP) on airway constrictor hyperresponsiveness and remodeling induced by house dust mite (HDM) exposure in female Balb/c mice. FIG. 4A Airway constrictor hyperresponsiveness methacholine dose-response curves for mice treated with remodilin 83 or 20% Solutol (vehicle).
A mouse model of acute allergic asthma was used in which mice were sensitized with house dust mite (HDM) extracts. […] As depicted in FIGS. 1A and 1B, male and female Balb/c mice treated with HDM were subjected to methacholine challenge. […] The area under the curve increased by at least 3.6-fold in each sex.
(§2) As depicted in FIG. 4A, twice-daily intraperitoneal administration of remodilins (12.5 mg/kg) was evaluated.

HDM-treated Balb/c mice [3] = assay: HDM-induced airway remodeling, MYH11 immunostain-positive airway smooth muscle area; assay type: in vivo; settings: 12.5 mg/kg BID IP, HDM model, female Balb/c mice, large airways, vs 20% Solutol vehicle
Protocol: as §1
Furthermore, three-way analysis of variance (Ctrl vs HDM, Female vs Male, Small vs Large Airways) confirmed that the HDM influence on airway remodeling was significant at P=0.0007.
as §2

bleomycin-treated mice = assay: Bleomycin-induced lung fibrosis in mice; assay type: in vivo; settings: 25 mg/kg QD IP
Protocol: FIGS. 8A-8B. Treatment with remodilin 83 (25 mg/kg QD IP) reduced pulmonary fibrosis in bleomycin-treated mice. Remodilin or vehicle (DMSO) was given on days 7-21 after i.t. bleomycin (1 U/kg). Both lung hydroxyproline (FIG. 8A) and collagen levels (FIG. 8B) were lower in remodilin 83-treated mice than in control mice.
Both lung hydroxyproline (FIG. 8A) and collagen levels (FIG. 8B) were lower in remodilin 83-treated mice (systemically-administered) than in control mice.

[4] = system: serum response factor (SRF); assay: Luciferase reporter assay of TGFβ-stimulated SRF activation; assay type: cell-based, human
Text: FIGS. 6A-6B. Remodilins inhibit myofibroblast transformation. Remodilin 4 inhibits TGFβ-stimulated serum response factor (SRF) activation (FIG. 6B) but not Smad signaling (FIG. 6A), as determined using luciferase reporter assays.
It is well-established that myofibroblast transformation (MFT) is a critical step in the development of pulmonafy fibrisos. […] Maintenance of Smad signaling can preserve other beneficial effects of TGFβ. As depicted in FIG. 7, four remodilins inhibited smooth muscle ACTA2 and fibronectin-1 (FN1) protein expression (markers of MFT) in dose-dependent fashion.

[5] = days 7-21 after i.t. bleomycin, vs control mice

- accumulation in lung vs. other tissues (liver, thyroid) or plasma [1]: selective accumulation
Structure (SMILES): COc1ccc(C(=O)Nc2ccc(S(=O)(=O)N3CCCCC3C)cc2)cc1I (stereo not drawn) [remodilin 39, 3-Iodo-4-methoxy-N-(4-((2-methylpiperidin-1-yl)sulfonyl)phenyl) benzamide]

- accumulation in lung vs. other tissues (liver, thyroid) or plasma [1]: selective accumulation
Structure (SMILES): O=C(Nc1ccc(S(=O)(=O)N2CCCC2)cc1)c1ccc(Br)c(I)c1 [remodilin 50, 4-Bromo-3-iodo-N-(4-(pyrrolidin-1-ylsulfonyl)phenyl)benzamide]

Continued, molecule first:

Structure (SMILES): COc1ccc(C(=O)Nc2ccc(S(=O)(=O)N3CCNCC3)cc2)cc1I [remodilin 61, 3-Iodo-4-methoxy-N-(4-(piperazin-1-ylsulfonyl)phenyl)benzamide]
- accumulation in lung vs. other tissues (liver, thyroid) or plasma [1]: higher concentrations in lung; also recorded: selective accumulation

Structure (SMILES): CC1CN(S(=O)(=O)c2ccc(NC(=O)c3ccc(Br)c(I)c3)cc2)CCN1 (stereo not drawn) [remodilin 83, 4-Bromo-3-iodo-N-(4-((3-methylpiperazin-1-yl)sulfonyl)phenyl)benzamide]
- development of airway constrictor hyperresponsiveness (HDM-treated Balb/c mice [2]): significantly blunted
- accumulation in lung vs. other tissues (liver, thyroid) or plasma [1]: higher concentrations in lung; also recorded: selective accumulation
- MYH11 immunostain-positive airway smooth muscle area normalized to epithelial length (HDM-treated Balb/c mice [3]): significantly lower
- MYH11 immunostain-positive airway smooth muscle area normalized to epithelial length (HDM-treated Balb/c mice [3]; listed as Remodilin 83): significantly lowered
- pulmonary fibrosis (bleomycin-induced) (bleomycin-treated mice; days 7-21 after i.t. bleomycin 1 U/kg, vs DMSO vehicle): inhibitory activity; also recorded: reduced
- lung collagen levels (bleomycin-treated mice; [5]): lower
- lung hydroxyproline (bleomycin-treated mice; [5]): lower

Structure (SMILES): CC1CNCCN1S(=O)(=O)c1ccc(NC(=O)c2ccc(Br)c(I)c2)cc1 (stereo not drawn) [remodilin 86, 4-Bromo-3-iodo-N-(4-((2-methylpiperazin-1-yl)sulfonyl)phenyl)benzamide]
- accumulation in lung vs. other tissues (liver, thyroid) or plasma [1]: higher concentrations in lung; also recorded: selective accumulation

Structure (SMILES): CCN(CC)S(=O)(=O)c1ccc(NC(=O)c2ccc(OC)c(I)c2)cc1 [remodilin 4, N-(4-(N,N-diethylsulfamoyl)phenyl)-3-iodo-4-methoxybenzamide]
- TGFβ-stimulated serum response factor (SRF) activation [4]: inhibits
